Results published in ChEMBL document CHEMBL4311943, “3-[(1S,2S,3R)-2,3-Difluoro-1-hydroxy-7-methylsulfonylindan-4-yl]oxy-5-fluorobenzonitrile (PT2977), a Hypoxia-Inducible Factor 2α (HIF-2α) Inhibitor for the Treatment of Clear Cell Renal Cell Carcinoma” (J Med Chem, 2019).
Calls of active or inactive are those of the source. The rule behind the calls is not given here.

Legend:
[1] = target: Cysteinyl leukotriene receptor 1 (Homo sapiens) (UniProt Q9Y271); test: Activity at human CysLT1 receptor at 10 uM
[2] = Cmax in patient with advanced solid tumor at 120 mg, po administered once daily measured on day 15; assay type: ADME, organism-based; parameters: dose 120 mg, route oral; conditions: human, in vivo
[3] = target: Protein kinase C beta type (Homo sapiens) (UniProt P05771); test: Activity at human PKCbeta1 at 10 uM
[4] = target: Tyrosine-protein phosphatase non-receptor type 1 (Homo sapiens) (UniProt P18031); test: Activity at human PTP1B at 10 uM
[5] = target: Calcium/calmodulin-dependent protein kinase type II subunit gamma (Homo sapiens) (UniProt Q13555); test: Activity at human CAMK2G at 10 uM
[6] = target: 5-hydroxytryptamine receptor 2B (Homo sapiens) (UniProt P41595); test: Activity at human 5-HT2B receptor at 10 uM
[7] = target: Receptor-type tyrosine-protein kinase FLT3 (Homo sapiens) (UniProt P36888); test: Activity at human Flt3 at 10 uM
Chain of Receptor-type tyrosine-protein kinase FLT3 (Homo sapiens) (P36888 whole entry): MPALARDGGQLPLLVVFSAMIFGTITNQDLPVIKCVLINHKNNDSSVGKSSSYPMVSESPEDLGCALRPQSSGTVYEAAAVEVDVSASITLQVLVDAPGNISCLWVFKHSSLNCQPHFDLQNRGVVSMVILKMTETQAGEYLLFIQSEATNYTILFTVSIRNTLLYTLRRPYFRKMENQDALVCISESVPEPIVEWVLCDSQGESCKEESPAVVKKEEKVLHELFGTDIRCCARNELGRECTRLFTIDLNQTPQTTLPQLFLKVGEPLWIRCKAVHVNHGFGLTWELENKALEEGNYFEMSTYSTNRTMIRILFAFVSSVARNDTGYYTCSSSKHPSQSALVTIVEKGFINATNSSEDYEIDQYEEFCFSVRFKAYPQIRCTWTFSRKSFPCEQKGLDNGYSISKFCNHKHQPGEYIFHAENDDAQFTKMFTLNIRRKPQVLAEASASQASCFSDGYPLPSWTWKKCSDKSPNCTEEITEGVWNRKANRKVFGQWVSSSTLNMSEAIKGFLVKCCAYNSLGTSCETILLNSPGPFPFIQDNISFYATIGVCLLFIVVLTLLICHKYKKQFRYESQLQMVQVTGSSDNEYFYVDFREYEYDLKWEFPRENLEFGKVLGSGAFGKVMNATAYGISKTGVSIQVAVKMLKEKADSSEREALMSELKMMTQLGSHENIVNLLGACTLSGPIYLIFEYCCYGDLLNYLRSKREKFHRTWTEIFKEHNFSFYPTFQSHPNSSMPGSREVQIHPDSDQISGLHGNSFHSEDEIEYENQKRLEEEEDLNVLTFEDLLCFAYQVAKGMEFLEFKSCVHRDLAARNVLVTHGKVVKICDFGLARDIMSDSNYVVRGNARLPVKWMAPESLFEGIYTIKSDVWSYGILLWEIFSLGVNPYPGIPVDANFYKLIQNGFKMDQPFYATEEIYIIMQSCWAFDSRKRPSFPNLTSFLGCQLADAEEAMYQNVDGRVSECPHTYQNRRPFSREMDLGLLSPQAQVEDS

[8] = target: Mitogen-activated protein kinase 1 (Homo sapiens) (UniProt P28482); test: Activity at human MAPK2 at 10 uM
[9] = target: Neuropeptide Y receptor type 2 (Homo sapiens) (UniProt P49146); test: Activity at human NPY2 receptor at 10 uM
[10] = target: Prostaglandin E2 receptor EP2 subtype (Homo sapiens) (UniProt P43116); test: Activity at human Prostanoid EP2 receptor at 10 uM
[11] = target: D(2) dopamine receptor (Homo sapiens) (UniProt P14416); test: Activity at human D2L receptor at 10 uM
Chain of D(2) dopamine receptor (Homo sapiens) (P14416 whole entry): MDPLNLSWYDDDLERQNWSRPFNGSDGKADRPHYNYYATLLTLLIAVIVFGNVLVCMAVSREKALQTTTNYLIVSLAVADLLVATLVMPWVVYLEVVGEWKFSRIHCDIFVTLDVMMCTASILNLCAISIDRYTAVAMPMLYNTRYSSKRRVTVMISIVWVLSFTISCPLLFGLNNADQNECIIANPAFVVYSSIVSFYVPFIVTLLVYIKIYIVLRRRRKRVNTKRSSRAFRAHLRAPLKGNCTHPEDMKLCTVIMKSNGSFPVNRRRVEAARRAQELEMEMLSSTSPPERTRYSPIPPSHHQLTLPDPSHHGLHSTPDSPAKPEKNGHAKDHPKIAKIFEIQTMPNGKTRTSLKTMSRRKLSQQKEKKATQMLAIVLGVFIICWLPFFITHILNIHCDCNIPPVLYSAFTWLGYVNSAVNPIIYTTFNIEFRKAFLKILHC

[12] = target: Adenosine receptor A1 (Homo sapiens) (UniProt P30542); test: Activity at human adenosine A1 receptor at 10 uM
Chain of Adenosine receptor A1 (Homo sapiens) (P30542 whole entry): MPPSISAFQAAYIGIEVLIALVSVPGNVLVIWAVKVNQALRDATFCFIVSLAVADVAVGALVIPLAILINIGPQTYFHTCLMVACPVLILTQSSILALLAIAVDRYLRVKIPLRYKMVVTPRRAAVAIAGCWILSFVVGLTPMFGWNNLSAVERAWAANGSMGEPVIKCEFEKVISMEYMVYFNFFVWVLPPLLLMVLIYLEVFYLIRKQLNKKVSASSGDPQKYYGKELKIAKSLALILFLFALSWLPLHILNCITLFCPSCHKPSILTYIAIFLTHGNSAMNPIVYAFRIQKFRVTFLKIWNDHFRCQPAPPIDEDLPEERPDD

[13] = target: Orexin/Hypocretin receptor type 1 (Homo sapiens) (UniProt O43613); test: Activity at human OX1 receptor at 10 uM
Chain of Orexin/Hypocretin receptor type 1 (Homo sapiens) (O43613 whole entry): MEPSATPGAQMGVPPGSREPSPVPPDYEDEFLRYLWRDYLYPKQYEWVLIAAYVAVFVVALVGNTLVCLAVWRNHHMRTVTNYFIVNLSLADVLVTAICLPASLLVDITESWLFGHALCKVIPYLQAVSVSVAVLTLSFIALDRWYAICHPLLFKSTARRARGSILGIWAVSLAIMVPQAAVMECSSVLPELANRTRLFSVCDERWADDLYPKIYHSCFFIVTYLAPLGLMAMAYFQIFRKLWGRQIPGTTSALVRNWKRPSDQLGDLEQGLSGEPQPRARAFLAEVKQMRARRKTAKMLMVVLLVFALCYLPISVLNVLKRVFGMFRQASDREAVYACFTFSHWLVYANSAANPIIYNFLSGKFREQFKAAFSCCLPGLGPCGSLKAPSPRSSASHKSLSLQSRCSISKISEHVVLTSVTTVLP

Cytochrome P450 2C8 = Cytochrome P450 2C8 (Homo sapiens, UniProt P10632); test: Inhibition of CYP2C8 in human liver microsomes up to 50 uM using amodiaquine as substrate measured after 10 mins in presence of NADPH by LC-MS/MS analysis; assay type: ADME
[14] = Drug level in plasma of SCID Beige mouse xenografted with human 786-O cells at 0.3 mg/kg, po administered twice daily via gavage for 3 days measured 12 hrs post-last dose; assay type: ADME, organism-based
[15] = target: Thyrotropin receptor (Homo sapiens) (UniProt P16473); test: Activity at human TSH at 10 uM
Chain of Thyrotropin receptor (Homo sapiens) (P16473 whole entry, looked up, canonical isoform): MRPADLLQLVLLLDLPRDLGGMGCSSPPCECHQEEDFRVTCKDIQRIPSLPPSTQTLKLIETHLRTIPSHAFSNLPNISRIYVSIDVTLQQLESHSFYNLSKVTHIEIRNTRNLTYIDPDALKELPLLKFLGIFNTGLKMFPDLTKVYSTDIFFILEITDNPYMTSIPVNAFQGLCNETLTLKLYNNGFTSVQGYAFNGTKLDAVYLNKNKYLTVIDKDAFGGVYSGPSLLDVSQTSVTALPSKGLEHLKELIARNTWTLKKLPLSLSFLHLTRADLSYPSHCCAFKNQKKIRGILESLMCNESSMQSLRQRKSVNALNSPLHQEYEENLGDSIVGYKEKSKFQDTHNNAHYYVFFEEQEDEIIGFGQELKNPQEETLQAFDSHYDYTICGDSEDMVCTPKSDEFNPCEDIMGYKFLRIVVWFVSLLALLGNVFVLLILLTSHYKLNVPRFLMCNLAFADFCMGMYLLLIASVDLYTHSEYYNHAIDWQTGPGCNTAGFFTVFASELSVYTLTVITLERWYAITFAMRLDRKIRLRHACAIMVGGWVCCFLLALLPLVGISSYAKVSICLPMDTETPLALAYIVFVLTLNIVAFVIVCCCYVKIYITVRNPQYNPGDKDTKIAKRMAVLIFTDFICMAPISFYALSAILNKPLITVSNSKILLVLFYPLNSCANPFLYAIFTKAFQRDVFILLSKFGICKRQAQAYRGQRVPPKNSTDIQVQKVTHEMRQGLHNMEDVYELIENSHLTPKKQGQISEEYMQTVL

[16] = target: Phosphorylase b kinase gamma catalytic chain, liver/testis isoform (Homo sapiens) (UniProt P15735); test: Activity at human PhKgamma2 at 10 uM
[17] = target: Kappa-type opioid receptor (Homo sapiens) (UniProt P41145); test: Activity at human kappa opioid receptor at 10 uM
[18] = target: fMet-Leu-Phe receptor (Homo sapiens) (UniProt P21462); test: Activity at human FPR1 receptor at 10 uM
[19] = Clearance in CD-1 mouse at 3 mg/kg, iv by UPLC-MS analysis; assay type: ADME, organism-based; conditions: in vivo
[20] = target: CDK2/Cyclin A2 (Homo sapiens) (UniProt P24941+P20248); test: Activity at human CDK2/cyclinA at 10 uM; assay type: protein-complex assay
[21] = Half life in patient with advanced solid tumor at 80 mg, po administered once daily measured on day 15; assay type: ADME, organism-based; conditions: human, in vivo
[22] = target: Tyrosine-protein phosphatase non-receptor type 2 (Homo sapiens) (UniProt P17706); test: Activity at human TCPTP at 10 uM
Chain of Tyrosine-protein phosphatase non-receptor type 2 (Homo sapiens) (P17706 whole entry): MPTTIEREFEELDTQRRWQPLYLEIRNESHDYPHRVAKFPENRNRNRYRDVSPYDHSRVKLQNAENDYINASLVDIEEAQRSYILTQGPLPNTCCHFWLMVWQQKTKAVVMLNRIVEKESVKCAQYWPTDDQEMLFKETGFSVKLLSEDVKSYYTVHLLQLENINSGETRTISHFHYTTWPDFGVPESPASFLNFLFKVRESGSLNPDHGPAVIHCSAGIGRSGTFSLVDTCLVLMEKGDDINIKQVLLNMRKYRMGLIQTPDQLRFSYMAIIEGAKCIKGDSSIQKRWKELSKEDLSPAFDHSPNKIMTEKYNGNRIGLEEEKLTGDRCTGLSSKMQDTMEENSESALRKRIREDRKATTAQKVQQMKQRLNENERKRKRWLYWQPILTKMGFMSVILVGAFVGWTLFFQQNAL

[23] = target: Tyrosine-protein kinase Lyn (Homo sapiens) (UniProt P07948); test: Activity at human Lyn at 10 uM
Chain of Tyrosine-protein kinase Lyn (Homo sapiens) (P07948 2-512 limits assumed): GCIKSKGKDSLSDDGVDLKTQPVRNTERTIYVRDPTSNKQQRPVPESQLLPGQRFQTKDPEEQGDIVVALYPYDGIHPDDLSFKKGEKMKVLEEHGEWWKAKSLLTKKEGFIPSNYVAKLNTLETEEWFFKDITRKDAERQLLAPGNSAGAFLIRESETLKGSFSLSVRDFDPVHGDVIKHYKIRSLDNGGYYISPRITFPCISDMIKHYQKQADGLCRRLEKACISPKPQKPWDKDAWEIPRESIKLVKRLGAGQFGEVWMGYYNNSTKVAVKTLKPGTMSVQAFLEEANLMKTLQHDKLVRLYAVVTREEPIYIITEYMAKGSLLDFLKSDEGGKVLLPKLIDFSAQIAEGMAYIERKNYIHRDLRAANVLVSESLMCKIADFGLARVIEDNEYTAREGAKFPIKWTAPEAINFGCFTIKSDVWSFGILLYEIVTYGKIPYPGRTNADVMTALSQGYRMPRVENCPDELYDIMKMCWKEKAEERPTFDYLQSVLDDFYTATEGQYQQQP

[24] = target: Cyclin-dependent kinase 2/cyclin E1 (Homo sapiens) (UniProt P24864+P24941); test: Activity at human CDK2/cyclinE at 10 uM; assay type: protein-complex assay
[25] = target: CDK3/Cyclin E (Homo sapiens) (UniProt P24864+Q00526); test: Activity at human CDK3/cyclinE at 10 uM; assay type: protein-complex assay
[26] = target: Protein kinase C zeta type (Homo sapiens) (UniProt Q05513); test: Activity at human PKCzeta at 10 uM
[27] = Volume of distribution at steady state in monkey at 1 mg/kg, iv by UPLC-MS analysis; assay type: ADME, organism-based, Macaca mulatta; conditions: rhesus monkey, in vivo, read-out: Vdss
[28] = target: Prostaglandin D2 receptor (Homo sapiens) (UniProt Q13258); test: Activity at human Prostanoid DP receptor at 10 uM
[29] = target: Leukotriene B4 receptor 1 (Homo sapiens) (UniProt Q15722); test: Activity at human BLT1 receptor at 10 uM
Chain of Leukotriene B4 receptor 1 (Homo sapiens) (Q15722 whole entry): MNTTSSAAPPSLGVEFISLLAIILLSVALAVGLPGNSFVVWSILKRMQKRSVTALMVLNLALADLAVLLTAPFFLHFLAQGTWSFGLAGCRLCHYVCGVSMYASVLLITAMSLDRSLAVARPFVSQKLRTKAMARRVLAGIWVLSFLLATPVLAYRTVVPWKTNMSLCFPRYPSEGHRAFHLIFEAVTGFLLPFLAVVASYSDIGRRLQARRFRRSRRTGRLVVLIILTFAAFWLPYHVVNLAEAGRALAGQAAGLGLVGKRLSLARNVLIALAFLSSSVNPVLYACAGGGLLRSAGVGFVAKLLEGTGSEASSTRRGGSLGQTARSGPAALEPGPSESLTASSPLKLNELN

[30] = target: Neuromedin-K receptor (Homo sapiens) (UniProt P29371); test: Activity at human NK3 receptor at 10 uM
Chain of Neuromedin-K receptor (Homo sapiens) (P29371 whole entry): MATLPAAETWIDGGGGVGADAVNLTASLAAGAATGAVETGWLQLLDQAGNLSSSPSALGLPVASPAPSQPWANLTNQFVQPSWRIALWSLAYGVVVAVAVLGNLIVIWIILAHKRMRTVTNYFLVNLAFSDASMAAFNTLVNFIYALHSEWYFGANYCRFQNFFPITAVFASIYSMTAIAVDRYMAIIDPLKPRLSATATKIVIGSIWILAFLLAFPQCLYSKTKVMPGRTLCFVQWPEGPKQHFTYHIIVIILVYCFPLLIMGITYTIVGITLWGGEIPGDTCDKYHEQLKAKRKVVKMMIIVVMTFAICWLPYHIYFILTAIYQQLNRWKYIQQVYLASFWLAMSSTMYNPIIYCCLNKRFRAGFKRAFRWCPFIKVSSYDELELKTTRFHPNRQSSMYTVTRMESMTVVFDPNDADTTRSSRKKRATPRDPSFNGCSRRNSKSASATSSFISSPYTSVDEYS

[31] = Cmax in patient with advanced solid tumor at 240 mg, po administered once daily measured on day 15; assay type: ADME, organism-based; parameters: dose 240 mg, route oral; conditions: human, in vivo

Activity [1]: inactive
Cmax [2]: 1800 ng/mL
Activity [3]: inactive
Activity [4]: inactive
Activity [5]: inactive
Activity [6]: inactive
Activity [7]: inactive
Activity [8]: inactive
Activity [9]: inactive
Activity [10]: inactive
Activity [11]: inactive
Activity [12]: inactive
Activity [13]: inactive
inhibition (INH) (Cytochrome P450 2C8): Not Active
concentration at 12 h [14]: < 19 ng/mL
Activity [15]: inactive
Activity [16]: inactive
Activity [17]: inactive
Activity [18]: inactive
clearance [19]: 21 mL/min/kg
Activity [20]: inactive
half-life [21]: 15.4 h
Activity [22]: inactive
Activity [23]: inactive
Activity [24]: inactive
Activity [25]: inactive
Activity [26]: inactive
Vd [27]: 2.9 L/kg
Activity [28]: inactive
Activity [29]: inactive
Activity [30]: inactive
Cmax [31]: 2700 ng/mL
Compound: CS(=O)(=O)c1ccc(Oc2cc(F)cc(C#N)c2)c2c1[C@H](O)[C@H](F)[C@@H]2F [BELZUTIFAN]
